Values quoted from earlier work in patent US20250268823A1, “Aqueous Quetiapine Solutions” (RELIIS LTD, priority 2022, published 2025).
Counter-ions that a name gives are not always drawn.

Experiments:
[1] = target: dopaminergic D1 receptors (Homo sapiens, UniProt P21728)
[2] = target: dopaminergic D2 receptors (Homo sapiens, UniProt P14416)
dopaminergic D2 receptors, sequence (P14416 whole entry): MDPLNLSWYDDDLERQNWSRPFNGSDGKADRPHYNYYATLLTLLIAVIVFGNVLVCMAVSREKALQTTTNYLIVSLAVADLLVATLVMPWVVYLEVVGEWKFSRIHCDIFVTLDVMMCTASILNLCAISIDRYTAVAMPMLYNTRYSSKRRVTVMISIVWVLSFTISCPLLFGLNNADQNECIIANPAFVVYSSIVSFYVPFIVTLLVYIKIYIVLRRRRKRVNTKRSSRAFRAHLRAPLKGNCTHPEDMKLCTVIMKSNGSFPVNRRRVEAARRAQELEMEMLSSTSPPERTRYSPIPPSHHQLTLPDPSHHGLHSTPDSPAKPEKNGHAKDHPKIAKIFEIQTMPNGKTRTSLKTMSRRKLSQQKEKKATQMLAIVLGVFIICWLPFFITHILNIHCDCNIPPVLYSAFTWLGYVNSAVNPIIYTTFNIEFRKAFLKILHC

dopaminergic D1 receptors, sequence (P21728 whole entry): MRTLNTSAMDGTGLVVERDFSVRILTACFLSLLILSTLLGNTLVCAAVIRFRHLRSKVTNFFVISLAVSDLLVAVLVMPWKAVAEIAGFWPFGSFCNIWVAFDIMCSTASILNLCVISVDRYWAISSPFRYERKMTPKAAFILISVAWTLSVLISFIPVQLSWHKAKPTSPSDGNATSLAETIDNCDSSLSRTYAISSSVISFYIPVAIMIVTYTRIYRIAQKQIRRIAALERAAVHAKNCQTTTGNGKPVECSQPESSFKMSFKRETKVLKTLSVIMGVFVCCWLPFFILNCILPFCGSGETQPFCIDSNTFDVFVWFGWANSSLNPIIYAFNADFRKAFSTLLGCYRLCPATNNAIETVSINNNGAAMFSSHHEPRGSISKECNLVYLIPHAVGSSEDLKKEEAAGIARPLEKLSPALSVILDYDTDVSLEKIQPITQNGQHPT

Row | affinity to D1 receptors [1] | affinity to D2 receptors [2] | binding at D2 receptors [2] | affinity to α1-adrenergic receptors (α1-adrenergic receptors) | affinity to α2-adrenergic receptors (α2-adrenergic receptors) | solubility in water | Structure (SMILES)
1 | major affinity | major affinity | low binding | moderate affinity | moderate affinity | – | OCCOCCN1CCN(C2=Nc3ccccc3Sc3ccccc32)CC1 [Quetiapine, 2-(2-(4-(dibenzo[b,f][1,4]thiazepin-11-yl)piperazin-1-yl)ethoxy)ethanol]
2 | – | – | – | – | – | about 0.04 mg/ml | OCCOCCN1CCN(C2=Nc3ccccc3Sc3ccccc32)CC1 [quetiapine fumarate]
